How the values were obtained:
[1] = system: normal and transformed BJ cells; assay: a131 SAR analysis: pH3(Ser10) immunoblot, BrdU incorporation, subG1 FACS; format: cell-based, human; set-up: key: Group 1: possess the dual-inhibitory properties of both causing the arrest of normal BJ cells at the G1/S phase and also causing mitotic arrest/catastrophe in transformed BJ cells; Group 2: only cause the arrest of normal BJ cells at the G1/S phase; Group 3: cause mitotic arrest/catastrophe in transformed BJ cells, but do not arrest normal BJ cells at the G1/S phase; Group 4: are inactive or weakly active; conditions: 5 μM, 48 h
Protocol: Cell death was assessed via Annexin V and/or PI (propidium iodide) staining according to the manufacturer's instructions (eBioscience). Cell growth arrest was assessed by direct measurement of DNA synthesis through incorporation of the nucleoside analog bromodeoxyuridine (BrdU). Briefly, BrdU (30 μM, Sigma-Aldrich) was added for 2 h before harvesting cells. Cells were subsequently stained with Pacific Blue-conjugated BrdU antibody (Invitrogen) for 1 h followed by PI staining. Stained cells were analyzed by MACSQuant (MACS). Three independent experiments were performed in triplicate. The percentage of Annexin V/PI- or BrdU-positive cells was quantified using Flow Jo software (Becton Dickinson). Where indicated, the combined activity of caspase-3/7 was determined using the caspase-Glo 3/7 Assay Kit (Promega) and normalized to the number of viable cells as determined by MTT assay.
(§1) Total cell lysates were prepared with 1% triton lysis buffer [25 mM Tris HCl (pH 8.0), 150 mM NaCl, 1% triton-X100, 1 mM dithiothreitol (DTT), protease inhibitor mix (Complete Mini, Roche) and phosphatase inhibitor (PhosphoStop, Roche)] and subjected to SDS-PAGE. The following antibodies were used for immunoblotting: anti-β-actin (Sigma-Aldrich), anti-cleaved PARP (Abcam, #ab32064), anti-PI5P4Kα (#5527), anti-PI5P4Kβ (#9694), anti-cleaved caspase-3 (#9664), anti-pHistone H3(Ser10) (#3377), anti-pAkt(S473) (#9271), anti-pAkt(T308) (#13038), anti-total Akt (#9272), anti-p70S6K(T389) (#9234), anti-total p70S6K (#9202), anti-pErk (#4370), anti-γ-Histone H2AX (#9718) (Cell signaling) and anti-PIK3IP1 (Proteintech, #16826-1-AP). The secondary antibodies used were sheep anti-mouse IgG HRP and donkey anti-rabbit IgG HRP (Amersham; 1:2000 dilution). Immunoreactive proteins were visualized using ECL reagent (Amersham). Where indicated, intensities of protein bands were quantified by densitometry (Odyssey V3.0), normalized to their loading controls and then calculated as fold expression change relative to DMSO control.

NCC19 = assay: MTT cytotoxicity test (GI50); format: cell-based; conditions: Homo sapiens; NCC19, cancer, gastric; MTT 72 h
[2] = system: HCT-15 human colon adenocarcinoma cells; assay: HCT-15 tumor xenograft in nude mice; format: in vivo, mouse
From the text: BALB/c athymic female nude mice (nu/nu, 5-7 weeks) (InVivos) were kept under specific pathogen-free (SPF) conditions. The care and use of mice was approved by the Duke-NUS IACUC in accordance with protocol 2015/SHS/1030. HCT15 human colon cancer cells (5×10^6) or MDA-MB-231 human breast cancer cells (4×10^6 with Matrigel) were subcutaneously injected into the flanks of mice. When the mean tumor volume reached 100-300 mm^3 (Day 1), the mice were randomly divided into experimental groups of 6 mice by an algorithm that moves animals around to achieve the best case distribution to assure that each treatment group has similar mean tumor burden and standard deviation. No statistical method was used to predetermine sample size. […] Paclitaxel (Cayman Chemical) was dissolved in ethanol:Tween 80=1:3 (v/v) solution followed by the addition of a 5% glucose solution (final ratio, ethanol:Tween 80:5% glucose=5:15:80) and injected via the tail vain (IV). Tumor dimensions were measured using calipers, and tumor volume (mm^3) was calculated using the formula width^2×length/2 in a blinded fashion. On Day 12 (HCT15) or Day 16 (MDA-MB-231), mice were sacrificed. Tumors were collected, fixed overnight in 4% paraformaldehyde (PFA) and stored in 70% ethanol. For immunostaining, antigens were retrieved from formaldehyde-fixed, paraffin-embedded tumor tissue sections for 30 min by boiling in sodium citrate buffer (pH 6.0) using a microwave histoprocessor (Milestone). Endogenous peroxidase activity in tissue sections was depleted by treatment with 3% hydrogen peroxide (H2O2 in 1×TBS) for 20 min at room temperature. Tumor tissue sections were incubated overnight with anti-β-tubulin (Abcam; 1:100 in 3% BSA/TBS-Tween 20) at 4° C. followed by incubation with goat anti-rabbit FITC-conjugated secondary antibody (Invitrogen; 1:200 in 3% BSA/TBS) for 1 h at 25° C. After dehydration treatment, coverslips were mounted using DAPI mounting medium (Vector). Images were acquired in 3D-SIM mode using a super resolution microscope (Nikon), and the number of cells with either 2 or mitotic-spindles was quantified (n>50 cells per section, 6-7 sections per treatment). For detection of apoptosis using the TUNEL method, the ApopTag Plus Peroxidase In Situ Apoptosis Detection Kit (Millipore) was used for formaldehyde-fixed, paraffin-embedded tumor tissue sections treated with b5 (80 mg/kg, IP) or control vehicle for 12 days. Slide scans were acquired using a MetaSystems Metafer built on a Zeiss Axiolmager Z.2 upright microscope. The system is equipped with a CoolCubel camera and a Zeiss Plan-Neofluar 20×/0.5 Ph2 objective lens. Image acquisition was controlled with Metafer4 software, and stitching was performed with the VSlide software and further processed using the open source software FIJI. A custom macro was used to batch process the images in the following sequence: Gaussian filter, color deconvolution of hematoxylin and DAB, thresholding the hematoxylin image, watershed to separate touching nuclei, and then count the number of hematoxylin-stained nuclei. For the DAB image, a fixed threshold was used, watershed applied and the number of DAB stained nuclei counted. In all cases, no data or animals were excluded and results are expressed as mean and standard deviation of the mean.

[3] = target: T1, Delta(3,5)-Delta(2,4)-dienoyl-CoA isomerase, mitochondrial (Homo sapiens, UniProt Q13011); assay: MS-CETSA in normal BJ cell lysates; format: binding; conditions: lysate, 100 μM compound
T1 construct: After collecting data covering >8,000 proteins in lysates of normal BJ cells; endogenous in cells; host or cells: normal BJ cells, lysate
Protocol: Target identification was performed by cellular thermal shift assay (CETSA) coupled with quantitative mass spectrometry. In brief, normal BJ cells were lysed by combination of freeze/thaw and mechanical shearing with needle in buffer [50 mM HEPES (pH 7.5), 5 mM β-glycerophosphate, 0.1 mM Sodium Vanadate, 10 mM MgCl2, 1 mM TCEP and 1× Protease inhibitor Cocktail]. The cell debris was removed by centrifugation at 20,000 g for 20 min at 4° C. […] Each lysate was divided into 10 aliquots for heat treatment at the respective temperatures for 3 min in a 96-well thermocycler, followed by 3 min at 4° C. The lysate was centrifuged at 20,000 g for 20 min at 4° C. and the supernatant was transferred into microtubes for MS sample preparation.
After lysis, at least 100 μg of the protein (measured with a BCA assay) was subjected to reduction, denaturation and alkylation. Samples were subsequently incubated with sequencing grade LysC (Wako) and trypsin (Promega) for digestion overnight at 37° C. The digested samples were dried using a centrifugal vacuum evaporator, solubilized in 100 mM TEAB. […]
Proteins for which a low temperature plateau was not present were deleted using a cut off >0.85 for the average reading of the first three temperature points (in our experience proteins melting already at −37° C. are more prone to give false positives in a shift analysis).

NCC24 = assay: MTT cytotoxicity test (GI50); format: cell-based; conditions: Homo sapiens; NCC24, cancer, gastric; MTT 72 h
NUGC3 = assay: MTT cytotoxicity test (GI50); format: cell-based; conditions: Homo sapiens, NUGC-3; NUGC3, cancer, gastric; MTT 72 h
HeLa = assay: MTT cytotoxicity test (GI50); format: cell-based; conditions: Homo sapiens, cancer, others, cervix, MTT 72 h
PI3K/Akt/mTOR pathway = assay: Immunoblot of phosphorylated Akt and p70S6K; format: cell-based, human; conditions: normal versus transformed BJ cells, 24 h
Protocol: as §1

T1 sequence (Q13011 34-328): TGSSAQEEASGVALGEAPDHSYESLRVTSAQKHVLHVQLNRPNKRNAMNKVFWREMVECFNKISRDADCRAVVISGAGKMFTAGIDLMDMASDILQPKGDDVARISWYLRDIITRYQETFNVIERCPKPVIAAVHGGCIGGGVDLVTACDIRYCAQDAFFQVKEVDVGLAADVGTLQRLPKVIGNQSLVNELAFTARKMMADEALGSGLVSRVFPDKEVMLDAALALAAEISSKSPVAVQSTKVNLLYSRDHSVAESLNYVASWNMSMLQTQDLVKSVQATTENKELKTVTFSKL

`N#C/C(=C\c1cccc2cnccc12)c1c[nH]c2ccccc12` [a131, (Z)-2-(1H-indol-3-yl)-3-(5-isoquinolyl)prop-2-enenitrile] was tested. Which “Group (a131 SAR analysis)” value [1] did it give?
The value was “Group 1”.

What about the GI50 (NCC19) of the same compound?
The GI50 was 4.6 µM.

And the “misaligned chromosomes / multipolar spindles in tumor sections” value ([2]; HCT-15 tumor sections, Day 12)?
The value was “caused massively misaligned chromosomes with multipolar spindles in tumor sections”.

And the “antitumor activity (tumor volume)” value ([2]; a131 20 mg/kg, b5 40-80 mg/kg, PO or IP twice daily, 12 days, paclitaxel IV)?
Its value is “marked antitumor efficacies”.

What about the body weight loss ([2]; xenograft-bearing mice, PO or IP twice daily) of the same compound?
The body weight loss was “without any body weight loss”.

And the ED score [3]?
Its ED score is 0.3541.

And the ΔTm at 100 µM ([3]; read-out: mean Delta Tm)?
Its ΔTm at 100 µM is 1.51 °C.

And the GI50 (NCC24)?
The GI50 was 1200 nM.

And the GI50 (NUGC3)?
Its GI50 is 1000 nM.

What about the GI50 (HeLa) of the same compound?
The GI50 was 1400 nM.

What about the “inhibition of the PI3K/Akt/mTOR pathway” value (PI3K/Akt/mTOR pathway) of the same compound?
Its value is “consistently caused inhibition of the PI3K/Akt/mTOR pathway only in normal BJ cells, but not in transformed counterparts”.

Reference: patent US20190350964A1, “ANTI-CANCER COMPOUNDS AND USES THEREOF” (NATIONAL UNIVERSITY OF SINGAPORE, priority 2016, published 2019)
